These are literature values, as cited in US9221747B2, “Method of making fatty acid N-acylalkanolamines” (Iowa State University Research Foundation, Inc., priority 2012, dated 2015).

For this data set the following is noted: at −20° C.

Molecules are shown by their SMILES.

`CCCCCCCC/C=C\CCCCCCCC(=O)O` [oleic acid]: the solubility in methanol was 4.02 g/100 g methanol.

On to `CCCCC/C=C\C/C=C\CCCCCCCC(=O)O` [linoleic acid], for which the solubility in methanol is recorded as 233 g/100 g methanol.
